Reference: paper PMC12383718, “C-Terminal Modification Contributes the Antibacterial Activity of a Cecropin-like Region of Heteroscorpine-1 from Scorpion Venom” (Biology, 2025)
≈ marks a conversion by molar mass, not a printed value. Ends that are not written are not given here.

Key:
[1] = tested on: Escherichia coli ATCC 25922; test: microbe, parasite or virus in culture; type: cell-based; settings: E. coli ATCC 25922, 37 °C, 16–18 h, ND = no detection at the highest tested concentration
Procedure: (§1) The following microorganisms were used to determine the minimum inhibitory concentration (MIC) and minimum bactericidal concentration (MBC) of the peptides: Gram-positive Staphylococcus aureus ATCC 25923, Gram-negative Escherichia coli ATCC 25922, Klebsiella pneumoniae ATCC 27736, and Pseudomonas aeruginosa ATCC 27853. The assays were conducted according to the protocol described by Erviana et al., with some modifications.
(§2) The antibacterial activity of the modified CeHS-1 analogs was evaluated using MIC and MBC assays. The MIC (minimum inhibitory concentration) is defined as the lowest concentration of antimicrobial peptides (AMPs) or other agents that inhibits visible bacterial growth. In contrast, the MBC (minimum bactericidal concentration) is defined as the lowest concentration of AMPs that kills 99.9% of the bacterial inoculum under the specified conditions. The determination of MIC values was performed using a 96-well plate assay. Initially, peptides were serially diluted in the wells. Then, 10 µL of bacterial inoculum, previously adjusted to a cell density of 2.2 × 10^6 CFU/mL, was added to each well. The plates were incubated at 37 °C for 16–18 h. The MIC was determined by measuring the optical density at 600 nm (OD600), with the lowest concentration of AMPs that inhibited visible bacterial growth defined as the MIC. […] The lowest concentration of AMPs at which no bacterial colonies were observed was defined as the MBC [47].

[2] = tested on: Klebsiella pneumoniae ATCC 27736; test: microbe, parasite or virus in culture; type: cell-based; settings: K. pneumoniae ATCC 27736, 37 °C, 16–18 h, ND = no detection at the highest tested concentration
Procedure: as §1, §2

[3] = tested on: Pseudomonas aeruginosa ATCC 27853; test: microbe, parasite or virus in culture; type: cell-based; settings: P. aeruginosa ATCC 27853, 37 °C, 16–18 h, ND = no detection at the highest tested concentration
Procedure: as §1, §2

[4] = tested on: Staphylococcus aureus ATCC 25923; test: microbe, parasite or virus in culture; type: cell-based; settings: S. aureus ATCC 25923, 37 °C, 16–18 h, ND = no detection at the highest tested concentration
Procedure: as §1, §2

[5] = tested on: S. aureus cytoplasmic membrane; type: cell-based, Staphylococcus aureus; settings: S. aureus 10^6 CFU/mL in PBS, 0.25, 0.5 and 1 MIC, 1 h, 37 °C; flow cytometry; at least triplicate
Procedure: A bacterial suspension of S. aureus was cultured in LB medium to the exponential phase (OD600 = 0.5). […] Following incubation, 42 µL of SYTOX™ Green Ready Flow™ Reagent (Invitrogen, Thermo Fisher Scientific, Carlsbad, CA, USA) was added to the peptide-treated cells and incubated for an additional 10 min at 25 °C. Fluorescence emission was measured using flow cytometry. The cell population was gated based on forward scatter and side scatter parameters. Cells with compromised membranes were identified by their fluorescence (excitation at 488 nm and detection at 530 nm with a 30 nm bandpass filter). The mean fluorescence intensity and the percentage of fluorescent cells were determined by analyzing 100,000 cells per sample. Each experiment was performed in at least triplicate. Flow cytometry measurements were conducted using a BD FACSCanto II system (BD Biosciences, Wokingham, UK).

[6] = tested on: human red blood cells (hRBCs); test: Hemolytic activity assay; type: cell-based; settings: 500 µg/mL peptide (highest concentration tested); 4% hRBC suspension in PBS pH 7.4, 37 °C, 1 h, absorbance 415 nm; relative to 0.1% Triton X-100
Procedure: The hemolytic activity of the peptides was assessed using human red blood cells (hRBCs), following the method described by Erviana et al., with some modifications. Briefly, a 4% hRBC suspension was prepared in 1X phosphate-buffered saline (PBS, pH 7.4). Subsequently, 100 µL of the hRBC suspension was mixed with 100 µL of peptide samples at various concentrations (500, 200, 100, 50, and 25 µg/mL) in microcentrifuge tubes. The mixture was incubated at 37 °C for 1 h, followed by centrifugation at 100× g for 5 min. The supernatant was collected and transferred to a 96-well plate for absorbance measurement at 415 nm. The hemolytic activity of each peptide was subsequently calculated using the following equation: Hemolysis (%)=S/P×100
In the above equation, S represents the absorbance at 415 nm of the sample or negative control, while P represents the absorbance at 415 nm of the positive control. The peptide solvent was used as the negative control, whereas 0.1% Triton X-100 served as the positive control.

[7] = 25 µL from wells without visible growth spread on nutrient agar
[8] = 96-well plate serial dilution, 10 µL inoculum of 2.2 × 10^6 CFU/mL, OD600

Compound	MBC ([1]; Escherichia coli, ATCC25922, 25 µL from wells without visible growth spread on nutrient agar) [µg/mL]	MIC ([1]; Escherichia coli, ATCC25922, 96-well plate serial dilution, 10 µL inoculum of 2.2 × 10^6 CFU/mL, OD600) [µg/mL]	MBC ([2]; Klebsiella pneumoniae, ATCC27736, 25 µL from wells without visible growth spread on nutrient agar) [µg/mL]	MIC ([2]; Klebsiella pneumoniae, ATCC27736, 96-well plate serial dilution, 10 µL inoculum of 2.2 × 10^6 CFU/mL, OD600) [µg/mL]	MBC ([3]; Pseudomonas aeruginosa, ATCC27853, 25 µL from wells without visible growth spread on nutrient agar) [µg/mL]	MIC ([3]; Pseudomonas aeruginosa, ATCC27853, 96-well plate serial dilution, 10 µL inoculum of 2.2 × 10^6 CFU/mL, OD600) [µg/mL]	MBC ([4]; Staphylococcus aureus, ATCC25923, 25 µL from wells without visible growth spread on nutrient agar) [µg/mL]	MIC ([4]; Staphylococcus aureus, ATCC25923, 96-well plate serial dilution, 10 µL inoculum of 2.2 × 10^6 CFU/mL, OD600) [µg/mL]	Cytoplasmic membrane permeabilization (SYTOX Green fluorescence intensity) [5]	E. coli MBC [1, 7] [µg/mL]	E. coli MIC [1, 8] [µg/mL]	Hemolytic activity [6] [%]	K. pneumoniae MBC [2, 7] [µg/mL]	K. pneumoniae MIC [2, 8] [µg/mL]	P. aeruginosa MBC [3, 7] [µg/mL]	P. aeruginosa MIC [3, 8] [µg/mL]	S. aureus MBC [4, 7] [µg/mL]	S. aureus MIC [4, 8] [µg/mL]
CC1(C)S[C@@H]2[C@H](NC(=O)[C@H](N)c3ccccc3)C(=O)N2[C@H]1C(=O)O [Ampicillin, reference compound]	32 (≈ 91.6 µM)	4 (≈ 11.4 µM)	> 256	> 256	256 (≈ 733 µM)	128 (≈ 366 µM)	8 (≈ 22.9 µM)	8 (≈ 22.9 µM)	–	–	–	–	–	–	–	–	–	–
NC[C@H]1O[C@H](O[C@H]2[C@H](O)[C@@H](O[C@H]3O[C@H](CO)[C@@H](O)[C@H](N)[C@H]3O)[C@H](N)C[C@@H]2N)[C@H](O)[C@@H](O)[C@@H]1O [kanamycin]	–	–	–	–	–	–	–	–	low fluorescence intensity	–	–	–	–	–	–	–	–	–
GWINIIKIQKKRWW-NH2 [compound 3]	–	–	–	–	–	–	–	–	–	256	128	7.74 ± 1.18	–	–	–	–	–	–
KIQKKIIKKIGRWW-NH2 [compound 6]	–	–	–	–	–	–	–	–	–	8	8	2.35 ± 0.20	256	256	32	16	64	32
KKILGGMAKAVRWW-NH2 [compound 9]	–	–	–	–	–	–	–	–	–	32	8	2.39 ± 0.22	128	128	128	64	128	64
VHKLAKGIFKRWW-NH2 [compound 12]	–	–	–	–	–	–	–	–	–	16	4	1.67 ± 0.17	256	256	64	32	32	32
